Data on 17 molecules can be found in ChEMBL document CHEMBL1146351, “Synthesis and biological evaluation of thiazolidine-2-one 1,1-dioxide as inhibitors of Escherichia coli beta-ketoacyl-ACP-synthase III (FabH)” (Bioorg Med Chem Lett, 2007).

Values after ≈ are worked out from the molar mass of the structure shown. Active and inactive are the calls of the source. The rule behind the calls is not given here.

The target in assay [1] is T1, 3-oxoacyl-[acyl-carrier-protein] synthase 3 (Escherichia coli, UniProt C3TDZ2).
T1 sequence (C3TDZ2 whole entry): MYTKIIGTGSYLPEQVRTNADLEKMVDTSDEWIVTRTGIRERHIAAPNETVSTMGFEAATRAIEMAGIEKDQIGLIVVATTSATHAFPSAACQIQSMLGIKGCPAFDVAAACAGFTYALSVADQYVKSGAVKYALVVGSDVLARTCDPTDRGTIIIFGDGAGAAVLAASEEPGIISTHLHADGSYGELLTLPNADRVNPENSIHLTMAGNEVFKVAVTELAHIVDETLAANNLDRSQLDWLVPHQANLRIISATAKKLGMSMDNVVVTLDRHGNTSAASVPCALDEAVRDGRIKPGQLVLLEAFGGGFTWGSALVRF
The assay can be described thus: Inhibition of Escherichia coli FabH.

The test system of another assay is Plasmodium falciparum. The assay can be described thus: Antimalarial activity against Plasmodium falciparum D6. The assay is classed as functional, organism-based.
For assay [2], the target named is T2, Mycobacterial beta-ketoacyl-[acyl-carrier-protein] synthase III (Mycobacterium tuberculosis) (UniProt P9WNG3).
T2 sequence (whole entry): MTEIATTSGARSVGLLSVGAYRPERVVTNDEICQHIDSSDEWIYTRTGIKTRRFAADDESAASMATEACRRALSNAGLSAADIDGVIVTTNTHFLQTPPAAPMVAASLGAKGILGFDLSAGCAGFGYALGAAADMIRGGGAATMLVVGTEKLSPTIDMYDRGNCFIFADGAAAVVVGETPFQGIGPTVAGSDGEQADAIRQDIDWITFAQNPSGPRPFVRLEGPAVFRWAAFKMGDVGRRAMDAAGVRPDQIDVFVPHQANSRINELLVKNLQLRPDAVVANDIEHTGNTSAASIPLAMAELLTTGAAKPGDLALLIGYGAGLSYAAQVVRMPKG
Description: Inhibition of Mycobacterium tuberculosis FabH at 100 uM.

Assay [3] concerns Escherichia coli. The assay can be described thus: Antibacterial activity against Escherichia coli. The assay is classed as functional.
The target of assay [4] is T3, Beta-ketoacyl-ACP-synthase III (Plasmodium falciparum) (UniProt O77078).
T3 sequence (whole entry): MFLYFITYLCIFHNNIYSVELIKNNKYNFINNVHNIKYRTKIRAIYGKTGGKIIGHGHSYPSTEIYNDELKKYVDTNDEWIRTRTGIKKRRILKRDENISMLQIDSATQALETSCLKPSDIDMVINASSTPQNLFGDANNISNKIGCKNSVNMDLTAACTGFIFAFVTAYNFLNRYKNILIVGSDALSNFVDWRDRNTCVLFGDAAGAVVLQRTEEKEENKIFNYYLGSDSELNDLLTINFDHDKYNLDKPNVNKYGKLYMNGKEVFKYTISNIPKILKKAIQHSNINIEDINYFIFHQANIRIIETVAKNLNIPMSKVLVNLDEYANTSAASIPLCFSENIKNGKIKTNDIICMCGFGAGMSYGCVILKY
Description: Inhibition of Plasmodium falciparum D6 KASIII at 100 uM.

Assay [5] has as its system Escherichia coli. The assay can be described thus: Antibacterial activity against Escherichia coli expressing FabH. In kind it is functional.

On to `O=C1N(CCc2ccccc2)CCS1(=O)=O`, for which the figures for the IC50 (in assay [1]; in the assay with Plasmodium falciparum) were 1.9 µM and 21.6 µM, respectively. Also, the result in assay [2] and in assay [4] was inactive. The molecule further came in with an MIC in the assay with Escherichia coli [3] of 16.5 µg/mL (≈ 69 µM).
For `S=C1SCCN1Cc1ccc(Oc2ccccc2)cc1`, the IC50 in assay [1] was > 100 µM; in the assay with Plasmodium falciparum it was 55.6 µM. For the same molecule, the result in assay [2] and in assay [4] was inactive.
For the molecule `S=C1SCCN1Cc1ccc(Oc2ccc(C3CCCC3)cc2)cc1`, the IC50 in assay [1] came out at 17.7 µM; in the assay with Plasmodium falciparum, 5.3 µM. The outcome in assay [2] and in assay [4] was inactive.
Regarding `O=C1SCCN1Cc1ccc(Oc2ccccc2)cc1`, the values for the 50% inhibitory concentration (IC50) (in assay [1]; with Plasmodium falciparum) were 10.9 µM and 67.1 µM, respectively. Also, the result in assay [2] and in assay [4] was inactive.
Consider `S=C1SCCN1CCc1ccccc1`, for which the IC50 in assay [1] is > 100 µM; in the assay with Plasmodium falciparum it was 55.5 µM. Besides, the outcome in assay [2] and in assay [4] was inactive.
With `O=C1N(Cc2ccccc2)CCS1(=O)=O`, the concentration for half-maximal inhibition (IC50) in assay [1] turned out to be 1.1 µM; in the assay with Plasmodium falciparum, 67.6 µM. Besides, the outcome in assay [2] and in assay [4] was inactive. In addition, the MIC against Escherichia coli [3] and against Escherichia coli [5] was 6.6 µg/mL (≈ 29.3 µM) in each case.
For `CN1CCSC1=S`, the IC50 (in assay [1]; in the assay with Plasmodium falciparum) was > 100 µM in each case. The result in assay [2] and in assay [4] was inactive.
As to `CN1CCS(=O)(=O)C1=O`, the IC50 (in assay [1]; with Plasmodium falciparum) was > 100 µM throughout. Also, the outcome in assay [2] and in assay [4] was inactive.
Turning to `O=C1SCCN1Cc1ccccc1`, the IC50 stood at 13.7 µM in assay [1] and 90.9 µM in the assay with Plasmodium falciparum. For the same molecule, the result in assay [2] and in assay [4] was inactive.
In the case of `CCCN1CCSC1=S`, the IC50 (in assay [1]; in the assay on Plasmodium falciparum) was > 100 µM throughout. In addition, the result in assay [2] and in assay [4] was inactive.
As to `O=C1SCCN1Cc1cccnc1`, the values for the 50% inhibitory concentration (IC50) (in assay [1]; in the assay on Plasmodium falciparum) were 20.7 µM and 78.4 µM, respectively. Further, the result in assay [2] and in assay [4] was inactive.
`O=C1N(Cc2ccc(Oc3ccc(C4CCCC4)cc3)cc2)CCS1(=O)=O`: the IC50 in assay [1] was 2.4 µM; in the assay with Plasmodium falciparum, 10.8 µM. Besides, the result in assay [2] and in assay [4] was inactive.
In the case of `S=C1SCCN1Cc1cccnc1`, the values for the IC50 (in assay [1]; in the assay on Plasmodium falciparum) were > 100 µM and 73.4 µM, respectively. Besides, the result in assay [2] and in assay [4] was inactive.
Turning to `S=C1SCCN1Cc1ccccc1`, the concentration for half-maximal inhibition (IC50) in assay [1] was > 100 µM; with Plasmodium falciparum it was 61.6 µM. Besides, the outcome in assay [2] and in assay [4] was inactive.
For `CCCN1CCS(=O)(=O)C1=O`, the 50% inhibitory concentration (IC50) (in assay [1]; with Plasmodium falciparum) was > 100 µM throughout. Further, the outcome in assay [2] and in assay [4] was inactive.
As for `O=C1SCCN1Cc1ccc(Oc2ccc(C3CCCC3)cc2)cc1`, the half-maximal inhibitory concentration (IC50) in assay [1] is 14.4 µM; with Plasmodium falciparum, 11.1 µM. Further, the outcome in assay [2] and in assay [4] was inactive.
Consider `O=C1N(Cc2ccc(Oc3ccccc3)cc2)CCS1(=O)=O`, for which the half-inhibitory concentration (IC50) in assay [1] stood at 0.9 µM; in the assay on Plasmodium falciparum, 49.4 µM. Further, the result in assay [2] and in assay [4] was inactive.

Broadly, the IC50 is the concentration at which inhibition is half-maximal. Low readings indicate inhibition by little substance, high ones a need for much substance. The term MIC denotes the least concentration at which growth counts as inhibited. High values mean a less susceptible organism, low ones a more susceptible organism.
